This is an account of results in patent US4634707A, “5-Pyrimidinecarboxamides and treatment of leukemia and tumors therewith” (Uniroyal Chemical Company, priority 1984, dated 1987).

Each structure is given as a SMILES string.

This test has as its system L1210 leukemia. Description: NCI 3LE31, i.p.-implanted L1210 lymphoid leukemia. The format is in vivo, DBA/2 mice. The note with it: for activity in i.p.-implanted lymphoid leukemia test (in words): 3LE31, reproducible T/C of 150% or higher is considered significant activity; for number of mice cured (surviving after thirty day test period): six mice. The procedure:
The spectrum of antitumor activity of the compound of Example 1 was determined employing a number of standard National Cancer Institute (NCI) protocols. The antitumor activity was determined in vivo against several different tumors, employing various treatment schedules and routes of administration.
Samples of the test compounds of Examples 1-10 and a number of structurally-related control compounds were tested in accordance with National Cancer Institute test protocol 3LE31 (NCI Protocol 1.100, Cancer Chemotherapy Reports Part 3, Vol. 3, No. 2, September 1972) to determine the effects of the several compounds on i.p.-implanted L1210 leukemia (J. Nat'l. Cancer Inst. 13(5):1328, 1953). Each test involved implantation of the leukemia cells in six DBA/2 mice, one sex per experiment, the male mice weighing a minimum of 18 grams and the female mice weighing a minimum of 17 grams, and all of the test animals being within a three gram weight range. The test compound was administered by i.p. injections, in 0.1 ml. doses of diluted ascitic fluid (10^5 cells per dose), commencing one day after the tumor implant and continuing daily for nine days.
The test animals were weighed and survivors recorded on a regular basis during a thirty day test period. The ratio of survival time for the treated and control animals (T/C) was determined as a percentage.
The tests were carried out at varying dosage levels and with varying numbers of repetitions, depending upon the results obtained with each test compoud. […] A reproducible T/C of 150% or higher is considered significant activity.
The number of mice "cured", viz., those surviving from each animal test group after the thirty day test period, is indicated in parenthesis following the T/C percentage data in Table III below: […]

Where [1] appears, read: 25 mg/kg i.p. daily for nine days.
The mark [2] stands for this setting: 50 mg/kg i.p. daily for nine days.
[3] abbreviates: 100 mg/kg i.p. daily for nine days.
[4] abbreviates: 200 mg/kg i.p. daily for nine days.
Setting [5] is: Mus musculus, L1210, ip, 25 mg/kg i.p. daily for nine days, read-out: T/C % (survival time treated/control).
Where [6] appears, read: Mus musculus, L1210, ip, 50 mg/kg i.p. daily for nine days, read-out: T/C % (survival time treated/control).
Setting [7] is: Mus musculus, L1210, ip, 100 mg/kg i.p. daily for nine days, read-out: T/C % (survival time treated/control).
Setting [8] is: Mus musculus, L1210, ip, 200 mg/kg i.p. daily for nine days, read-out: T/C % (survival time treated/control).
[9] abbreviates: 400 mg/kg i.p. daily for nine days.

On to `Cn1c(O)c(C(=O)Nc2ccc(Cl)cc2)c(=O)n(C)c1=S` [Control M], for which the “T/C % (survival time treated/control)” value under setting [1] is reported as “Toxic”, the “T/C % (survival time treated/control)” value under setting [2] is given as “Toxic”, the “T/C % (survival time treated/control)” value under setting [3] is reported as “Toxic” and the “T/C % (survival time treated/control)” value under setting [4] is reported as “Toxic”. Also, the response vs control in vivo at 1.5 mg/kg (Mus musculus, L1210, ip, 1.5 mg/kg i.p. daily for nine days, read-out: T/C % (survival time treated/control)) was 106%. Also, the response vs control in vivo at 3 mg/kg (Mus musculus, L1210, ip, 3 mg/kg i.p. daily for nine days, read-out: T/C % (survival time treated/control)) worked out at 92%. The response vs control in vivo at 6 mg/kg (Mus musculus, L1210, ip, 6 mg/kg i.p. daily for nine days, read-out: T/C % (survival time treated/control)) came out at 95%. The response vs control in vivo at 12 mg/kg (Mus musculus, L1210, ip, 12 mg/kg i.p. daily for nine days, read-out: T/C % (survival time treated/control)) was 106%. Also, the response vs control in vivo at 0.75 mg/kg (Mus musculus, L1210, ip, .75 mg/kg i.p. daily for nine days, read-out: T/C % (survival time treated/control)) is 102%.
For the molecule `Cn1c(=S)[nH]c(O)c(C(=O)Nc2cccc([N+](=O)[O-])c2)c1=O` [Control I], under setting [5], the response vs control in vivo at 25 mg/kg stood at 102%. The response vs control in vivo at 50 mg/kg under setting [6] came to 98%. Also, the response vs control in vivo at 100 mg/kg under setting [7] turned out to be 102%. Further, the response vs control in vivo at 200 mg/kg under setting [8] worked out at 112%.
Consider `O=C(Nc1ccc(F)cc1F)c1c(O)[nH]c(=S)[nH]c1=O` [Example 9, N-(2,4-difluorophenyl)-1,2,3,4-tetrahydro-6-hydroxy-4-oxo-1-thioxo-5-pyrimidinecarboxamide], for which the response vs control in vivo at 25 mg/kg under setting [5] amounted to 113%. Besides, the response vs control in vivo at 50 mg/kg under setting [6] is 113%. The response vs control in vivo at 100 mg/kg under setting [7] came to 114%. For the same molecule, the response vs control in vivo at 200 mg/kg under setting [8] is 133%.
`Cc1ccccc1NC(=O)c1c(O)[nH]c(=O)[nH]c1=O` [Control D]: the response vs control in vivo at 25 mg/kg under setting [5] stood at 108%. Further, the response vs control in vivo at 50 mg/kg under setting [6] was determined as 104%. Further, the response vs control in vivo at 100 mg/kg under setting [7] came out at 106%. In addition, under setting [8], the response vs control in vivo at 200 mg/kg stood at 124%.
With `O=C(Nc1ccccc1)c1c(O)n(-c2ccccc2)c(=S)n(-c2ccccc2)c1=O` [Control S], the response vs control in vivo at 25 mg/kg under setting [5] amounted to 97%. Under setting [6], the response vs control in vivo at 50 mg/kg was 100%.
For the molecule `COc1ccc(NC(=O)c2c(O)[nH]c(=O)[nH]c2=O)cc1` [Control F], the response vs control in vivo at 25 mg/kg under setting [5] was determined as 109%. Moreover, the response vs control in vivo at 50 mg/kg under setting [6] came to 105%. Besides, the response vs control in vivo at 100 mg/kg under setting [7] was found to be 105%. Also, the response vs control in vivo at 200 mg/kg under setting [8] came out at 117%.
`O=C(Nc1ccc(Cl)cc1)c1c(O)[nH]c(=S)[nH]c1=O` [Control A]: the “activity in i.p.-implanted lymphoid leukemia test (in words)” value was “inactive”. In addition, under setting [4], the “T/C % (survival time treated/control)” value is “Toxic”. Moreover, the “T/C” value (3LE31, upon further testing) is “less than 125%”. Moreover, under setting [5], the response vs control in vivo at 25 mg/kg was 110%. For the same molecule, the response vs control in vivo at 50 mg/kg under setting [6] amounted to 121%. Under setting [7], the response vs control in vivo at 100 mg/kg was 125%.
As for `O=C(Nc1ccccc1)c1c(O)n(-c2ccccc2)c(=S)n(-c2ccccc2)c1=O` [Control T], the “T/C % (survival time treated/control)” value under setting [1] worked out at 102%, the “T/C % (survival time treated/control)” value under setting [2] came to 109% and the “T/C % (survival time treated/control)” value under setting [9] is recorded as 109%.
In the case of `Cc1ccccc1NC(=O)c1c(O)[nH]c(=S)[nH]c1=O` [Example 3, 1,2,3,4-tetrahydro-6-hydroxy-N-(2-methylphenyl)-4-oxo-2-thioxo-5-pyrimidine-carboxamide], the “T/C % (survival time treated/control)” value under setting [4] was “Toxic”. Also, the response vs control in vivo at 25 mg/kg under setting [5] was 108%. In addition, under setting [6], the response vs control in vivo at 50 mg/kg turned out to be 112%.
For the molecule `Cn1c(O)c(C(=O)Nc2ccccc2)c(=O)n(C)c1=S` [Control K], the “T/C % (survival time treated/control)” value under setting [4] is on record as “Toxic”. Also, the response vs control in vivo at 25 mg/kg under setting [5] was 107%. Moreover, the response vs control in vivo at 50 mg/kg under setting [6] turned out to be 109%. Moreover, under setting [7], the response vs control in vivo at 100 mg/kg turned out to be 121%.
As for `COC(=O)c1ccccc1NC(=O)c1c(O)n(-c2ccccc2)c(=S)n(-c2ccccc2)c1=O` [Control V], the “T/C % (survival time treated/control)” value is, setting by setting: under setting [3], “Toxic”; under setting [4], “Toxic”. Further, the response vs control in vivo at 25 mg/kg under setting [5] stood at 102%. Moreover, the response vs control in vivo at 50 mg/kg under setting [6] stood at 106%.
As for `O=C(Nc1ccccc1F)c1c(O)[nH]c(=S)[nH]c1=O` [Example 8, N-(2-fluorophenyl)-1,2,3,4-tetrahydro-6-hydroxy-4-oxo-2-thioxo-5-pyrimidinecarboxamide], under setting [5], the response vs control in vivo at 25 mg/kg worked out at 148%. The response vs control in vivo at 50 mg/kg under setting [6] was determined as 105%. In addition, the response vs control in vivo at 100 mg/kg under setting [7] was 128%. Also, the response vs control in vivo at 200 mg/kg under setting [8] turned out to be 118%.
As to `Cc1ccc(C)c(NC(=O)c2c(O)n(C)c(=S)n(C)c2=O)c1` [Control N], the “T/C % (survival time treated/control)” value under setting [2] is on record as “Toxic”, the “T/C % (survival time treated/control)” value under setting [3] is “Toxic” and the “T/C % (survival time treated/control)” value under setting [4] is recorded as “Toxic”. The response vs control in vivo at 25 mg/kg under setting [5] stood at 103%.
On to `O=C(Nc1ccc(Cl)cc1)c1c(O)[nH]c(=S)n(-c2ccccc2)c1=O` [Control Q], for which the “T/C % (survival time treated/control)” value under setting [2] turned out to be 92%, the “T/C % (survival time treated/control)” value under setting [3] is recorded as 112% and the “T/C % (survival time treated/control)” value under setting [4] is given as “Toxic”. The response vs control in vivo at 25 mg/kg under setting [5] is 100%.
`CCOc1ccc(NC(=O)c2c(O)[nH]c(=S)[nH]c2=O)cc1` [Example 7, N-(4-ethoxyphenyl)-1,2,3,4-tetrahydro-6-hydroxy-4-oxo-2-thioxo-5-pyrimidinecarboxamide]: the “T/C % (survival time treated/control)” value under setting [4] is recorded as “Toxic”. The response vs control in vivo at 6.25 mg/kg (Mus musculus, L1210, ip, 6.25 mg/kg i.p. daily for nine days, read-out: T/C % (survival time treated/control)) came to 102%. Besides, the response vs control in vivo at 12.5 mg/kg (Mus musculus, L1210, ip, 12.5 mg/kg i.p. daily for nine days, read-out: T/C % (survival time treated/control)) amounted to 97%. Also, under setting [5], the response vs control in vivo at 25 mg/kg was determined as 115%. Further, under setting [7], the response vs control in vivo at 100 mg/kg is 178%.
Regarding `Cn1c(=S)[nH]c(O)c(C(=O)Nc2cccc([N+](=O)[O-])c2)c1=O` [Control J], the “T/C % (survival time treated/control)” value runs as follows: under setting [1], 100%; under setting [2], 94%; under setting [3], 104%; under setting [4], 101%.
As to `O=C(Nc1ccccc1)c1c(O)[nH]c(=O)[nH]c1=O` [Control B], the “activity in i.p.-implanted lymphoid leukemia test (in words)” value is “exhibited significant activity”. In addition, under setting [4], the “number of mice cured (surviving after thirty day test period)” value is on record as 2. Further, the response vs control in vivo at 25 mg/kg under setting [5] was 118%.
On to `O=C(Nc1cccc(F)c1)c1c(O)[nH]c(=S)[nH]c1=O` [Example 4, N-(3-fluorophenyl)-1,2,3,4-tetrahydro-6-hydroxy-4-oxo-2-thioxo-5-pyrmidinecarboxamide], for which the response vs control in vivo at 25 mg/kg under setting [5] is 114%. Also, the response vs control in vivo at 50 mg/kg under setting [6] turned out to be 114%. For the same molecule, under setting [7], the response vs control in vivo at 100 mg/kg amounted to 128%. Also, under setting [8], the response vs control in vivo at 200 mg/kg is 155%.
Regarding `COc1ccc(C)cc1NC(=O)c1c(O)[nH]c(=S)[nH]c1=O` [Example 10, 1,2,3,4-tethydro-6-hydroxy-N-(2-methoxy-5-methylphenyl)-4-oxo-2-thioxo-5-pyrimidinecarboxamide], the response vs control in vivo at 25 mg/kg under setting [5] amounted to 110%. Also, the response vs control in vivo at 50 mg/kg under setting [6] came out at 130%. In addition, under setting [7], the response vs control in vivo at 100 mg/kg came out at 113%. Moreover, the response vs control in vivo at 200 mg/kg under setting [8] amounted to 113%.
In the case of `O=C(Nc1ccccc1)c1c(O)[nH]c(=S)n(-c2ccccc2)c1=O` [Control P], the “T/C % (survival time treated/control)” value is reported as 110% under setting [1], 116% under setting [2], “Toxic” under setting [3] and “Toxic” under setting [4].
On to `O=C(Nc1ccccc1Cl)c1c(O)[nH]c(=S)[nH]c1=O` [Example 2, N-(2-chlorophenyl)-1,2,3,4-tetrahydro-6-hydroxy-4-oxo-2-thioxo-5-pyrimidinecarboxamide], for which the “number of mice cured (surviving after thirty day test period)” value under setting [4] was 1. The “T/C % (survival time treated/control)” value under setting [9] was “Toxic”. Besides, the response vs control in vivo at 25 mg/kg under setting [5] was determined as 106%. Moreover, the response vs control in vivo at 50 mg/kg under setting [6] is 118%. Further, the response vs control in vivo at 100 mg/kg under setting [7] was determined as 127%.
For `Cn1c(O)c(C(=O)Nc2ccccc2)c(=O)n(C)c1=S` [Control L], the “T/C % (survival time treated/control)” value under setting [1] came to 108%, the “T/C % (survival time treated/control)” value under setting [2] is recorded as “Toxic”, the “T/C % (survival time treated/control)” value under setting [3] is listed as “Toxic” and the “T/C % (survival time treated/control)” value under setting [4] was “Toxic”.
